Measurements: PubChem BioAssay AID1963958 (Molecular Pharmacology Branch, DTP, NCI, 2024)

Tested on: MDA-MB-231 multicell spheroids, viability
Experiment: Anticancer human tumor MDA-MB-231 cell line growth inhibition [PI3K];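 further: spheroids exposed to agents for seven days before reading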;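 on viability, T/C: percent of vehicle control luminescence with DMSO treated spheroids as 100%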
Conditions: for IC50: curve of first compound; for viability, T/C: stronger effect = lower value
In short: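 We assembled tumor spheroids that included a stromal compartment of HUVEC and MSCs, then exposed them to targeted agents alone and together with PI3K pathway inhibitors. Concentration series descended by half-log from clinically achievable Cmax levels. Viability served as the endpoint.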

[1] = second compound 0.00316 µM, first compound 0.0316 µM
[2] = second compound 0.00316 µM, first compound 0.1 µM
[3] = second compound 0.00316 µM, first compound 0.316 µM
[4] = second compound 0.00316 µM, first compound 1 µM
[5] = second compound 0.00316 µM, first compound 3.16 µM
[6] = second compound 0.00316 µM, first compound 10 µM
[7] = second compound 0.01 µM, first compound 0.0316 µM
[8] = second compound 0.01 µM, first compound 0.1 µM
[9] = second compound 0.01 µM, first compound 0.316 µM
[10] = second compound 0.01 µM, first compound 1 µM
[11] = second compound 0.01 µM, first compound 3.16 µM
[12] = second compound 0.01 µM, first compound 10 µM
[13] = second compound 0.0316 µM, first compound 0.0316 µM
[14] = second compound 0.0316 µM, first compound 0.1 µM
[15] = second compound 0.0316 µM, first compound 0.316 µM
[16] = second compound 0.0316 µM, first compound 1 µM
[17] = second compound 0.0316 µM, first compound 3.16 µM
[18] = second compound 0.0316 µM, first compound 10 µM
[19] = second compound 0.1 µM, first compound 0.0316 µM
[20] = second compound 0.1 µM, first compound 0.1 µM
[21] = second compound 0.1 µM, first compound 0.316 µM
[22] = second compound 0.1 µM, first compound 1 µM
[23] = second compound 0.1 µM, first compound 3.16 µM
[24] = second compound 0.1 µM, first compound 10 µM
[25] = second compound 0.316 µM, first compound 0.0316 µM
[26] = second compound 0.316 µM, first compound 0.1 µM
[27] = second compound 0.316 µM, first compound 0.316 µM
[28] = second compound 0.316 µM, first compound 1 µM
[29] = second compound 0.316 µM, first compound 3.16 µM
[30] = second compound 0.316 µM, first compound 10 µM
[31] = second compound 1 µM, first compound 0.0316 µM
[32] = second compound 1 µM, first compound 0.1 µM
[33] = second compound 1 µM, first compound 0.316 µM
[34] = second compound 1 µM, first compound 1 µM
[35] = second compound 1 µM, first compound 3.16 µM
[36] = second compound 1 µM, first compound 10 µM

C#Cc1c(F)ccc2cc(O)cc(-c3ncc4c(N5CC6CCC(C5)N6)nc(OCC56CCCN5CC(F)C6)nc4c3F)c12 (stereo not drawn) + COc1c(OCCCN2CCOCC2)ccc2c3n(c(=NC(=O)c4cnc(N)nc4)nc12)CCN3
IC50 (second compound 0.00316 µM): > 10000 nM | IC50 (second compound 0.01 µM): 8600 nM | IC50 (second compound 0.0316 µM): 2020 nM | IC50 (second compound 0.1 µM): < 31.6 nM | IC50 (second compound 0.316 µM): < 31.6 nM | IC50 (second compound 1 µM): < 31.6 nM | viability, T/C [1]: 96% | viability, T/C [2]: 101% | viability, T/C [3]: 81.7% | viability, T/C [4]: 88.4% | viability, T/C [5]: 78.4% | viability, T/C [6]: 52.7% | viability, T/C [7]: 77.9% | viability, T/C [8]: 77.8% | viability, T/C [9]: 72.9% | viability, T/C [10]: 74.2% | viability, T/C [11]: 66.3% | viability, T/C [12]: 47.5% | viability, T/C [13]: 60.6% | viability, T/C [14]: 56.3% | viability, T/C [15]: 60.5% | viability, T/C [16]: 54.6% | viability, T/C [17]: 45.7% | viability, T/C [18]: 35% | viability, T/C [19]: 47% | viability, T/C [20]: 46.7% | viability, T/C [21]: 46.9% | viability, T/C [22]: 40.8% | viability, T/C [23]: 33% | viability, T/C [24]: 21.5% | viability, T/C [25]: 32.2% | viability, T/C [26]: 31.5% | viability, T/C [27]: 26.4% | viability, T/C [28]: 23.4% | viability, T/C [29]: 18.1% | viability, T/C [30]: 13.3% | viability, T/C [31]: 24.8% | viability, T/C [32]: 23.1% | viability, T/C [33]: 20.2% | viability, T/C [34]: 16.8% | viability, T/C [35]: 15.1% | viability, T/C [36]: 10.4%

C=CC(=O)N1CCN(c2nc(=O)n(-c3c(C)ccnc3C(C)C)c3nc(-c4c(O)cccc4F)c(F)cc23)C(C)C1 (stereo not drawn) + COc1c(OCCCN2CCOCC2)ccc2c3n(c(=NC(=O)c4cnc(N)nc4)nc12)CCN3
IC50 (second compound 0.00316 µM): > 10000 nM | IC50 (second compound 0.01 µM): > 10000 nM | IC50 (second compound 0.0316 µM): > 10000 nM | IC50 (second compound 0.1 µM): < 31.6 nM | IC50 (second compound 0.316 µM): < 31.6 nM | IC50 (second compound 1 µM): < 31.6 nM | viability, T/C [1]: 94.2% | viability, T/C [2]: 91.6% | viability, T/C [3]: 104% | viability, T/C [4]: 112% | viability, T/C [5]: 122% | viability, T/C [6]: 105% | viability, T/C [7]: 83.5% | viability, T/C [8]: 82.7% | viability, T/C [9]: 85.4% | viability, T/C [10]: 93.2% | viability, T/C [11]: 103% | viability, T/C [12]: 85.8% | viability, T/C [13]: 59.1% | viability, T/C [14]: 58.9% | viability, T/C [15]: 61.6% | viability, T/C [16]: 62.5% | viability, T/C [17]: 64.8% | viability, T/C [18]: 48% | viability, T/C [19]: 42.3% | viability, T/C [20]: 45.3% | viability, T/C [21]: 46.7% | viability, T/C [22]: 46.1% | viability, T/C [23]: 45.7% | viability, T/C [24]: 33.6% | viability, T/C [25]: 31.1% | viability, T/C [26]: 31.4% | viability, T/C [27]: 32.7% | viability, T/C [28]: 31.7% | viability, T/C [29]: 27.6% | viability, T/C [30]: 26.7% | viability, T/C [31]: 24.8% | viability, T/C [32]: 24.3% | viability, T/C [33]: 23.2% | viability, T/C [34]: 26.3% | viability, T/C [35]: 29.3% | viability, T/C [36]: 25.7%

CC(Cn1ccc(-c2ccc(C#N)c(Cl)c2)n1)NC(=O)c1cc(C(C)O)[nH]n1 (stereo not drawn) + COc1c(OCCCN2CCOCC2)ccc2c3n(c(=NC(=O)c4cnc(N)nc4)nc12)CCN3
IC50 (second compound 0.00316 µM): > 10000 nM | IC50 (second compound 0.01 µM): > 10000 nM | IC50 (second compound 0.0316 µM): > 10000 nM | IC50 (second compound 0.1 µM): < 31.6 nM | IC50 (second compound 0.316 µM): < 31.6 nM | IC50 (second compound 1 µM): < 31.6 nM | viability, T/C [1]: 90% | viability, T/C [2]: 93.5% | viability, T/C [3]: 106% | viability, T/C [4]: 96.9% | viability, T/C [5]: 91.9% | viability, T/C [6]: 84.2% | viability, T/C [7]: 76.8% | viability, T/C [8]: 83.2% | viability, T/C [9]: 80.1% | viability, T/C [10]: 82.6% | viability, T/C [11]: 77.6% | viability, T/C [12]: 67.9% | viability, T/C [13]: 60.8% | viability, T/C [14]: 63.9% | viability, T/C [15]: 60.8% | viability, T/C [16]: 62.5% | viability, T/C [17]: 55% | viability, T/C [18]: 46.2% | viability, T/C [19]: 44.4% | viability, T/C [20]: 47.1% | viability, T/C [21]: 44.1% | viability, T/C [22]: 47.3% | viability, T/C [23]: 45.1% | viability, T/C [24]: 37.6% | viability, T/C [25]: 31.6% | viability, T/C [26]: 30.3% | viability, T/C [27]: 31.4% | viability, T/C [28]: 32% | viability, T/C [29]: 29.6% | viability, T/C [30]: 26.1% | viability, T/C [31]: 24.4% | viability, T/C [32]: 24.8% | viability, T/C [33]: 24.6% | viability, T/C [34]: 25.3% | viability, T/C [35]: 24.8% | viability, T/C [36]: 22.4%

Cn1nccc1Nc1nccc(-c2ccn(C(CO)c3ccc(Cl)c(F)c3)c(=O)c2)n1 (stereo not drawn) + COc1c(OCCCN2CCOCC2)ccc2c3n(c(=NC(=O)c4cnc(N)nc4)nc12)CCN3
IC50 (second compound 0.00316 µM): 467 nM | IC50 (second compound 0.01 µM): 222 nM | IC50 (second compound 0.0316 µM): 48.2 nM | IC50 (second compound 0.1 µM): < 31.6 nM | IC50 (second compound 0.316 µM): < 31.6 nM | IC50 (second compound 1 µM): < 31.6 nM | viability, T/C [1]: 74.5% | viability, T/C [2]: 69.9% | viability, T/C [3]: 48.3% | viability, T/C [4]: 44% | viability, T/C [5]: 37.7% | viability, T/C [6]: 28% | viability, T/C [7]: 65.9% | viability, T/C [8]: 58.6% | viability, T/C [9]: 46% | viability, T/C [10]: 34.8% | viability, T/C [11]: 28.3% | viability, T/C [12]: 23.5% | viability, T/C [13]: 50.3% | viability, T/C [14]: 48.9% | viability, T/C [15]: 41.8% | viability, T/C [16]: 32.5% | viability, T/C [17]: 26.6% | viability, T/C [18]: 20.4% | viability, T/C [19]: 41.6% | viability, T/C [20]: 34.3% | viability, T/C [21]: 29.3% | viability, T/C [22]: 25.9% | viability, T/C [23]: 22.4% | viability, T/C [24]: 13.1% | viability, T/C [25]: 25.8% | viability, T/C [26]: 22.8% | viability, T/C [27]: 17.8% | viability, T/C [28]: 17% | viability, T/C [29]: 13.2% | viability, T/C [30]: 8.91% | viability, T/C [31]: 20.8% | viability, T/C [32]: 16.8% | viability, T/C [33]: 13.8% | viability, T/C [34]: 12.7% | viability, T/C [35]: 10.5% | viability, T/C [36]: 7.95%
